Laboratory results from patent US20240294495A1, “COMPOUNDS THAT MEDIATE PROTEIN DEGRADATION AND METHODS OF USE THEREOF” (Monte Rosa Therapeutics, Inc., priority 2021, published 2024).

How the values were obtained:
CRBN-DDB1 = CRBN-DDB1 (Homo sapiens, UniProt Q96SW2); test: Compound binding to CRBN by HTRF assay; settings: CRBN-DDB1 2.5 nM, Cy5-Thalidomide 100 nM probe, 30 min incubation; read-out: HTRF Class (Cereblon binding, HTRF IC50)
Protocol: Compound activity was monitored in a Homogenous Time-Resolved Fluorescence (HTRF) assay using 1-[5-({2-[2-(2-{[2-(2,6-dioxopiperidin-3-yl)-1,3-dioxo-2,3-dihydro-1H-isoindol-4-yl]oxy}acetamido)ethoxy]ethyl}carbamoyl)pentyl]-3,3-dimethyl-2-[(1E,3E)-5-[(2E)-1,3,3-trimethyl-5-sulfo-2,3-dihydro-1H-indol-2-ylidene]penta-1,3-dien-1-yl]-3H-indol-1-ium-5-sulfonate as a fluorescent probe. Biochemical assays were conducted in Greiner white 384 well HiBase plates (Cat. No 784075-25) in 10 μL total volume. A one pot detection solution of CRBN-DDB1 (2.5 nM), Anti-His Terbium Cryptate Gold (1×, PerkinElmer Cat. #: 61HI2TLB), and Cy5-Thalidomide (100 nM, Tenova Cat.: T52461) was prepared in 20 mM HEPES, 20 mM NaCl, 0.2 mM TCEP, 0.2 mM EDTA, and 0.005% Tween20 was dispensed to each assay plate. Compounds were stored in dry, ambient temperatures at 10 mM. A 10-point, 1:3 dilution series was prepared from 10 mM stock concentrations in Echo-compatible LDV plates. 10 nL of each compound dilution series was dispensed into assays wells using an Echo 650 (Labcyte inc. USA). 10 nL of 10 mM Lenalidomide was transferred into the active-control wells for the assay and 10 nL of DMSO was transferred into the neutral-control wells. The assay was then allowed to incubate for 30 min at ambient temperature after transferring compound. Plate measurements were taken on a Pherastar FSX (BMG Labtech, Germany) using the HTRF Red filter (Ex. 337 nm, em1: 620 nm, em2: 665 nm) (Flashes: 50, Integration time: 60-400 us, Z-height: 10 mm, Ratio-multiplier: 10,000). The HTRF signal was then subsequently normalized to the neutral and active controls. Analysis and IC50 values were derived using KNIME analytics (KNIME Zurich) transformation and fitting within Collaborative Drug Discovery (Collaborative Drug Discovery USA). Ki was derived from the geometric mean of the IC50 values using the Cheng-Prustoff transformation.
(§1) In Table 2, each compound is assigned a class (HTRF class) indicating the ability for Cereblon binding by means of their HTRF IC50 values according to Example 3: A, B or C. According to the code, A represents an IC50 value of <100 nM, B represents an IC50 value>100 nM and <1000 nM, C represents an IC50 value>1000 nM. IF Class assigns each compound a code indicating the ability for GSPT1 degradation: A, B or C. According to the code, A represents a DC50 value of <30 nM, B represents a DC50 value>30 nM and <300 nM and C represents a DC50 value of >300 nM.

GSPT1 = biological target: T1, GSPT1 (Homo sapiens, UniProt P15170+Q96SW2); test: Immunofluorescence assay for GSPT1 degradation in CAL-51 cells; type: cell-based; settings: 6 h treatment, read-out: IF Class (GSPT1 degradation, DC50)
T1 construct: CAL-51 cells were purchased from DSMZ (cat. Number ACC302); endogenous in cells; host or cells: CAL-51 (DSMZ ACC302)
Protocol: The representative compounds were tested in an immunofluorescence assay for their activity to degrade GSPT1. CAL-51 cells were purchased from DSMZ (cat. Number ACC302), sub-cultured in 90% Dulbecco's MEM (4.5 g/L glucose, Gibco 11965)+10% heat inactivated FBS (BioConcept, 2-01F136I) and incubated at 37° C., 5% CO2. For the assay imaging microtiter plate Cell Carrier 96 Ultra (Perkin Elmer 6055302) were pre-coated with Fibronectin (Sigma F085, 30 μl at 0.2 μg/mL) in PBS (100 μL, Gibco 14190) for 45 min at room temperature, rinsed with PBS and CAL-51 cells (30K cells/well) were plated and let to adhere overnight. Cells were treated with compounds typically using a serial dilution ranging from 30 μM to 0.1 nM for 6 h. Compounds were stored at 10 mM DMSO stocks. Vehicle (DMSO), positive (CC-885, 10 μM) and rescue controls (positive control plus 0.2 μM bortezomib) were also included at this stage. Cells were subsequently rinsed with PBS and fixed in 10% Formalin solution (50 μl, Sigma HT5011)) for 20 min at room temperature. Following three consecutive PBS washes (100 μL), cells were permeabilized in 0.1% Triton X-100 in PBS (Sigma 93443, 50 μl) for 15 min at room temperature. Following three further PBS washes, 50 μl blocking buffer (1% BSA, Sigma A4503, in PBS) was added for 45 min for signal-to noise reduction. Primary antibody (human GSPT1, Sigma HPA052488) was diluted in blocking buffer (dil.1/300, 35 μL/well) and incubated with the cells overnight at 4° C. After three PBS washes, Alexa-fluor 488 coupled secondary antibodies (Invitrogen, A32731, dil.1/1000), Alexa-fluor 647-Phalloidin (Invitrogen, A22287, dil.1/200) and DAPI (Thermo, #62248, dil.1/1000) were diluted in blocking buffer and incubated with the samples for 2 h at room temperature. After three final PBS washes, samples were conserved in 100 μL PBS in the dark, until measurement. Image acquisition was performed on the Operetta High-Content Imager (Perkin-Elmer). Fluorescence intensity of […] (GSPT1), Alexa-Fluor 647 (Actin) and DAPI (Nucleus) were measured. For the determination of GSPT1 DC50 values, a custom algorithm implemented in the PerkinElmer image analysis software Harmony-Acapella® was developed. After user-defined setting of adjustment parameters, the analysis was run identically without human intervention for all image fields. DAPI staining of the nuclei was used to determine the location of cells using standard nuclei detection modules. Segmentation artifacts were removed by threshold-based filters for area, roundness and intensity. The outline of the cells was determined analogously from the sum of the normalized, smoothed DAPI and Actin channel, starting from each nucleus. The Alexa-Fluor 488 (GSPT1) signal intensity in each cell was finally measured, in order to obtain a Mean intensity per cell. GSPT1 degradation (DC50) was calculated after normalization to controls and data import in CDD vault Database, using non-linear regression.
as §1

T1 sequence (P15170 whole entry): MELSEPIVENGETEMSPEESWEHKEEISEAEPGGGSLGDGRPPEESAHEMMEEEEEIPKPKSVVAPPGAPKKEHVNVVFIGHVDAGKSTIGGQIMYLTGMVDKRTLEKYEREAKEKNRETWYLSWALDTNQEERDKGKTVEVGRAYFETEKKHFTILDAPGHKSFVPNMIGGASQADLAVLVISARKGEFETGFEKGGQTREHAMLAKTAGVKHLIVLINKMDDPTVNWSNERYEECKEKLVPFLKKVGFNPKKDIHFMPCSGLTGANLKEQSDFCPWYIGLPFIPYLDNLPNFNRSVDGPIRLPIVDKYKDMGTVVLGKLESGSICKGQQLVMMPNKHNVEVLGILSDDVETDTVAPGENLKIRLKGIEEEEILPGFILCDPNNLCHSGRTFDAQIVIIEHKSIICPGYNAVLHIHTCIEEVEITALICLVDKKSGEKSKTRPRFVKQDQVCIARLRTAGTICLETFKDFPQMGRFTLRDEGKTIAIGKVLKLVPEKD
T1 sequence (Q96SW2 whole entry): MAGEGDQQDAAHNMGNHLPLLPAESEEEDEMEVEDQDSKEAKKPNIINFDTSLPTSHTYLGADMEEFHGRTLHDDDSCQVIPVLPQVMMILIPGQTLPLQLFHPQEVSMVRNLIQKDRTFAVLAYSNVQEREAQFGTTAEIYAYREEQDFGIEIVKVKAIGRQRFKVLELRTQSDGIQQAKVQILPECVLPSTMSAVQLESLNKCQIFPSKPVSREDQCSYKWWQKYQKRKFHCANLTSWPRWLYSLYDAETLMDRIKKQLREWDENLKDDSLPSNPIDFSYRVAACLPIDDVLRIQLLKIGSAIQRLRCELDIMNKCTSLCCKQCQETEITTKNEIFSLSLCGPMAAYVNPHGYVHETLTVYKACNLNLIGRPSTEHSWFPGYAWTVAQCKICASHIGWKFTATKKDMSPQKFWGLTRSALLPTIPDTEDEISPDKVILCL
T1 sequence (Q16531 2-1140 partner limits assumed): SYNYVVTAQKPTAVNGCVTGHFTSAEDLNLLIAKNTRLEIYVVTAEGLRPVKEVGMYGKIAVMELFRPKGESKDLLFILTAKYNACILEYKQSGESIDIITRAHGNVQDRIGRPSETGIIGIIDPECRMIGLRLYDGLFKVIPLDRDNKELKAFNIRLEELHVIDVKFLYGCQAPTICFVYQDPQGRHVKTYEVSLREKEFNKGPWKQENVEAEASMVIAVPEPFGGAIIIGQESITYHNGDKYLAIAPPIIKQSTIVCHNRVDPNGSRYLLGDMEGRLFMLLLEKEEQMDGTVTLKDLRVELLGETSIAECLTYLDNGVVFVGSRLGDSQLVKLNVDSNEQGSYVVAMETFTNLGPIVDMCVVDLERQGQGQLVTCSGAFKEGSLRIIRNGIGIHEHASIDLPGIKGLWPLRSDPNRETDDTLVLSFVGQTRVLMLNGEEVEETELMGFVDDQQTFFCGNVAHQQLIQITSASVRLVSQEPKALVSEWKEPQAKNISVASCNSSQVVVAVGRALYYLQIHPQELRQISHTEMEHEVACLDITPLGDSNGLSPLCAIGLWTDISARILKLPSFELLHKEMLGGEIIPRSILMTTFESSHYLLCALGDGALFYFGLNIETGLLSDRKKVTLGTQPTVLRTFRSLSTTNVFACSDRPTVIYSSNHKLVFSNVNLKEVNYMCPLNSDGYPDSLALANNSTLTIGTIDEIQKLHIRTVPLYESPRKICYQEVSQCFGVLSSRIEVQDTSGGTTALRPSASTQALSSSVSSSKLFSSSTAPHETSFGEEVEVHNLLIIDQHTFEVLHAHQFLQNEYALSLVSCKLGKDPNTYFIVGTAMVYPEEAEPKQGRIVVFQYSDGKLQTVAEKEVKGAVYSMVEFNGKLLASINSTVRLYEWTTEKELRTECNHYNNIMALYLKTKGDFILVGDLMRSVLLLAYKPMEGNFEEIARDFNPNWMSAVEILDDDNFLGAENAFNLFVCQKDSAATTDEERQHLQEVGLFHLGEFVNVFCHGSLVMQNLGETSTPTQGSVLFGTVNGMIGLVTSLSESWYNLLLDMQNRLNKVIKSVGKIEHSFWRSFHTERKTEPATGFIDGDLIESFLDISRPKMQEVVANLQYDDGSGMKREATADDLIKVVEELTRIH
Sequence of CRBN-DDB1 (Q96SW2 whole entry): as the sequence (Q96SW2 whole entry) above
Sequence of CRBN-DDB1 (Q16531 whole entry partner): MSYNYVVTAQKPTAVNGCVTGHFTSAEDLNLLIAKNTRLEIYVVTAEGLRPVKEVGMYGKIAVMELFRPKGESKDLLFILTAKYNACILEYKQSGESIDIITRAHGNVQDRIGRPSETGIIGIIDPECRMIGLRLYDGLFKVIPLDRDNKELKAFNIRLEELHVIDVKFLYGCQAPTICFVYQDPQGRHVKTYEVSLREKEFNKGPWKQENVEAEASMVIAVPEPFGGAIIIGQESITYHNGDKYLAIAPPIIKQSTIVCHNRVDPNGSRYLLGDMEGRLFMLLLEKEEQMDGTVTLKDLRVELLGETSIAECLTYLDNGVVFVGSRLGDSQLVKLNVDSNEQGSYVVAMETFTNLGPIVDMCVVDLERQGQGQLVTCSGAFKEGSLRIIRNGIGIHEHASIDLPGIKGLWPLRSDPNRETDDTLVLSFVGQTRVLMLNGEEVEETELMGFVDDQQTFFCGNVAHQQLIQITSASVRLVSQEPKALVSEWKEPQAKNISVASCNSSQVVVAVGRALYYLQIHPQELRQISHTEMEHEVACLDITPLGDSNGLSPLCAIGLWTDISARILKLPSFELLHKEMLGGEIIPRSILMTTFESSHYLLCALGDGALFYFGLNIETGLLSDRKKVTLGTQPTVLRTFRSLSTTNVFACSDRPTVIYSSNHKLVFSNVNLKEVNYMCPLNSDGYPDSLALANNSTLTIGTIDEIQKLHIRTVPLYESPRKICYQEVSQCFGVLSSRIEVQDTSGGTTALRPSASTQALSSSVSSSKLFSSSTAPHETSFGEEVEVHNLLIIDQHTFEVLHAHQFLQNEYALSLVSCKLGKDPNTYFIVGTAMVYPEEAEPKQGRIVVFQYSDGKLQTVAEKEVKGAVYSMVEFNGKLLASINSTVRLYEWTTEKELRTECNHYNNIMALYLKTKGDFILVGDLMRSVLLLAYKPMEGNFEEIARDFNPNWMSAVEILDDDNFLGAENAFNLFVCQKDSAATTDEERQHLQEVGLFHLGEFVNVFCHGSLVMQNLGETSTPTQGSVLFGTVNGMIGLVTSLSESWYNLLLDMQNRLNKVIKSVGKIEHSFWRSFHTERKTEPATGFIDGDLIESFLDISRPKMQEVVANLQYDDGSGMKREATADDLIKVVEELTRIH

Structure (SMILES) | IC50 (CRBN-DDB1) [nM] | DC50 (GSPT1) [nM]
O=C1CCC(c2c(F)cc(N3CC(NC(=O)Cc4cc(Cl)ccc4F)C3)cc2F)C(=O)N1 (stereo not drawn) [Compound 12, 2-(5-chloro-2-fluorophenyl)-N-(1-(4-(2,6-dioxopiperidin-3-yl)-3,5-difluorophenyl)azetidin-3-yl)acetamide] | < 100 | 30 to 300
O=C1CCC(c2c(F)cc(N3CC(NC(=O)Cc4ccc(Cl)c(F)c4)C3)cc2F)C(=O)N1 (stereo not drawn) [Compound 14, 2-(4-chloro-3-fluorophenyl)-N-(1-(4-(2,6-dioxopiperidin-3-yl)-3,5-difluorophenyl)azetidin-3-yl)acetamide] | 100 to 1000 | > 300
O=C1CCC(c2c(F)cc(N3CC(NC(=O)Cc4ncc(Cl)cc4F)C3)cc2F)C(=O)N1 (stereo not drawn) [Compound 15, 2-(5-chloro-3-fluoropyridin-2-yl)-N-(1-(4-(2,6-dioxopiperidin-3-yl)-3,5-difluorophenyl)azetidin-3-yl)acetamide] | 100 to 1000 | > 300
O=C1CCC(c2c(F)cc(N3CC(NC(=O)Cc4ccc(F)c(F)c4)C3)cc2F)C(=O)N1 (stereo not drawn) [Compound 17, 2-(3,4-difluorophenyl)-N-(1-(4-(2,6-dioxopiperidin-3-yl)-3,5-difluorophenyl)azetidin-3-yl)acetamide] | 100 to 1000 | > 300
Cc1c(Cl)cc(CC(=O)NC2CN(c3cc(F)c(C4CCC(=O)NC4=O)c(F)c3)C2)cc1CN1CCOCC1 (stereo not drawn) [Compound 18, 2-(3-chloro-4-methyl-5-(morpholinomethyl)phenyl)-N-(1-(4-(2,6-dioxopiperidin-3-yl)-3,5-difluorophenyl)azetidin-3-yl)acetamide] | 100 to 1000 | < 30
C[C@@H]1CCCN1c1ccc(CC(=O)NC2CN(c3cc(F)c(C4CCC(=O)NC4=O)c(F)c3)C2)cn1 (stereo partly drawn) [Compound 19, N-(1-(4-(2,6-dioxopiperidin-3-yl)-3,5-difluorophenyl)azetidin-3-yl)-2-(6-((R)-2-methylpyrrolidin-1-yl)pyridin-3-yl)acetamide] | < 100 | > 300
O=C1CCC(c2c(F)cc(N3CC(NC(=O)C45CC(c6ccccc6)(C4)C5)C3)cc2F)C(=O)N1 (stereo not drawn) [Compound 21, N-(1-(4-(2,6-dioxopiperidin-3-yl)-3,5-difluorophenyl)azetidin-3-yl)-3-phenylbicyclo [1.1.1]pentane-1-carboxamide] | 100 to 1000 | > 300
O=C1CCC(c2c(F)cc(N3CC(NC(=O)Cc4ccc5c(c4)OCC5)C3)cc2F)C(=O)N1 (stereo not drawn) [Compound 24, 2-(2,3-dihydrobenzofuran-6-yl)-N-(1-(4-(2,6-dioxopiperidin-3-yl)-3,5-difluorophenyl)azetidin-3-yl)acetamide] | 100 to 1000 | > 300
Cc1nc(CC(=O)NC2CN(c3cc(F)c(C4CCC(=O)NC4=O)c(F)c3)C2)ccc1Cl (stereo not drawn) [Compound 25, 2-(5-chloro-6-methylpyridin-2-yl)-N-(1-(4-(2,6-dioxopiperidin-3-yl)-3,5-difluorophenyl)azetidin-3-yl)acetamide] | 100 to 1000 | > 300
O=C1CCC(c2c(F)cc(N3CC(NC(=O)Cc4cc(F)cc(OC(F)F)c4)C3)cc2F)C(=O)N1 (stereo not drawn) [Compound 26, 2-(3-(difluoromethoxy)-5-fluorophenyl)-N-(1-(4-(2,6-dioxopiperidin-3-yl)-3,5-difluorophenyl)azetidin-3-yl)acetamide] | 100 to 1000 | > 300
COc1cc(Cl)ccc1CC(=O)NC1CN(c2cc(F)c(C3CCC(=O)NC3=O)c(F)c2)C1 (stereo not drawn) [Compound 27, 2-(4-chloro-2-methoxyphenyl)-N-(1-(4-(2,6-dioxopiperidin-3-yl)-3,5-difluorophenyl)azetidin-3-yl)acetamide] | 100 to 1000 | 30 to 300
O=C1CCC(c2c(F)cc(N3CC(NC(=O)Cc4cccc(OC(F)(F)F)c4)C3)cc2F)C(=O)N1 (stereo not drawn) [Compound 28, N-(1-(4-(2,6-dioxopiperidin-3-yl)-3,5-difluorophenyl)azetidin-3-yl)-2-(3-(trifluoromethoxy)phenyl) acetamide] | 100 to 1000 | 30 to 300

Results, then the molecule that gave them:

IC50 (CRBN-DDB1) [nM] | DC50 (GSPT1) [nM] | Structure (SMILES)
100 to 1000 | > 300 | O=C1CCC(c2c(F)cc(N3CC(NC(=O)Cc4ccc(F)c(Cl)c4)C3)cc2F)C(=O)N1 (stereo not drawn) [Compound 13, 2-(3-chloro-4-fluorophenyl)-N-(1-(4-(2,6-dioxopiperidin-3-yl)-3,5-difluorophenyl)azetidin-3-yl)acetamide]
100 to 1000 | 30 to 300 | O=C1CCC(c2c(F)cc(N3CC(NC(=O)Cc4c(F)cc(Cl)cc4F)C3)cc2F)C(=O)N1 (stereo not drawn) [Compound 16, 2-(4-chloro-2,6-difluorophenyl)-N-(1-(4-(2,6-dioxopiperidin-3-yl)-3,5-difluorophenyl)azetidin-3-yl) acetamide]
100 to 1000 | > 300 | O=C1CCC(c2c(F)cc(N3CC(NC(=O)Cc4ccc(C5CCC5)cc4)C3)cc2F)C(=O)N1 (stereo not drawn) [Compound 20, 2-(4-cyclobutylphenyl)-N-(1-(4-(2,6-dioxopiperidin-3-yl)-3,5-difluorophenyl)azetidin-3-yl)acetamide]
100 to 1000 | > 300 | Cc1cc(CC(=O)NC2CN(c3cc(F)c(C4CCC(=O)NC4=O)c(F)c3)C2)ncc1Cl (stereo not drawn) [Compound 22, 2-(5-chloro-4-methylpyridin-2-yl)-N-(1-(4-(2,6-dioxopiperidin-3-yl)-3,5-difluorophenyl)azetidin-3-yl)acetamide]
100 to 1000 | > 300 | CC(C)(C)C12CC(C(=O)NC3CN(c4cc(F)c(C5CCC(=O)NC5=O)c(F)c4)C3)(C1)C2 (stereo not drawn) [Compound 23, 3-(tert-butyl)-N-(1-(4-(2,6-dioxopiperidin-3-yl)-3,5-difluorophenyl)azetidin-3-yl) bicyclo[1.1.1]pentane-1-carboxamide]
100 to 1000 | < 30 | Cc1cc(C)cc(CC(=O)NC2CN(c3cc(F)c(C4CCC(=O)NC4=O)c(F)c3)C2)c1 (stereo not drawn) [Compound 29, 2-(3,5-dimethylphenyl)-N-(1-(4-(2,6-dioxopiperidin-3-yl)-3,5-difluorophenyl)azetidin-3-yl)acetamide]
